Source: article PMC5658448, “From receptor binding kinetics to signal transduction; a missing link in predicting in vivo drug-action” (Scientific Reports, 2017)
Read-outs that look alike come from different tables or passages of the source. Each block holds one molecule with its values, some of them ahead of it.

How the values were obtained:
NK1 receptor [1] = biological target: T1, NK1 receptor (Homo sapiens, UniProt P25103); parameters: host or cells: U-251 MG cells; settings: cited from earlier work
T1 sequence (P25103 whole entry): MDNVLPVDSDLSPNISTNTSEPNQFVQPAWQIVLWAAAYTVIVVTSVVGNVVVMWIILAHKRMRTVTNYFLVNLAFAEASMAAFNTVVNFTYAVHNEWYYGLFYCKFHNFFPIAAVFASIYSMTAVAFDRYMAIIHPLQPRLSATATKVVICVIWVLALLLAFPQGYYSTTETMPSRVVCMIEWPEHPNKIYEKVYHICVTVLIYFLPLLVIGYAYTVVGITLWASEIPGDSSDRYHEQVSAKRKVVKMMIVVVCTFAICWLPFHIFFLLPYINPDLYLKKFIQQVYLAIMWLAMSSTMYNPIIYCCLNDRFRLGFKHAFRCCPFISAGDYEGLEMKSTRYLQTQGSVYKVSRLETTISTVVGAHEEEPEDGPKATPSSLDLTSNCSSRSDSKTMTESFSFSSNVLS

NK1 receptor [2] = biological target: T1, NK1 receptor; parameters: host or cells: U-251 MG cells; settings: agonist alone; normalized to NKA only; cited from earlier work
[3] = biological target: human neurokinin 1 receptor (Homo sapiens, UniProt P25103); assay: Real-time cAMP accumulation assay (GloSensor) in CHOhNK1 cells; type: cell-based; settings: for type of antagonism (insurmountability): antagonist pre-incubation before SP or NKA, cAMP and morphology assays; for decrease of onset of NKA-induced cAMP production: antagonist pretreatment
Sequence of human neurokinin 1 receptor (P25103 whole entry): as above
Method: Real-time cAMP production was measured using the life cell cAMP GloSensor^TM assay[11],[12]. The technology is based on a cAMP-biosensor, which undergoes a conformational change upon cAMP binding, followed by the turnover of Luciferin.
CHOhNK1 cells were transiently transfected with the pGloSensor™-22F cAMP (6 ng/µL) plasmid using FuGene HD (3 µL:1 µg DNA plasmid) as a transfection reagent. Accordingly, cells were harvested and reconstituted to 0.5 × 10^6 cells/ml (10,000 cells/well) in DMEM/F-12/ HEPES supplemented with 1% FCS, 2 mM glutamine and 1 mg/ml G418. The diluted plasmid solution was combined with the transfection reagent and incubated for 20 min at room temperature. Subsequently, the transfection mixture and cell solution were mixed for additional 5 min before plating in 384-well plates. The transfected cells were incubated for 24 h at 37 °C + 5% CO2 followed by treatment with Glo-substrate (3% v/v) for 2 h at room temperature. […] Real-time changes in the level of cAMP were detected using an Envision HTS microplate reader 2103 (PerkinElmer).
(§1) The onset of receptor activation was analyzed by calculating the slope with linear regression of the first 8 minutes of the cellular response.2 onset=Δcellularresponse/Δtime

NK1 receptor [4] = biological target: T1, NK1 receptor; assay: Impedance-based morphology assay (xCELLigence) in U-251 MG cells; type: cell-based; parameters: host or cells: U-251 MG cells; settings: for Onset of receptor activation, morphology, NKA / Onset of receptor activation, morphology, SP / decrease of onset of NKA-induced morphological changes / decrease of onset of SP-induced impedance changes: first 8 min; for decrease of onset of NKA-induced morphological changes / decrease of onset of SP-induced impedance changes: antagonist pretreatment; for increase of EC50 value of NKA: xCELLigence, highest antagonist concentration; for IC50: antagonist pre-incubation
Method: Label-free morphology assays were performed using the xCELLigence RTCA system as described previously[27],[42].
as §1

NK1 receptor [5] = biological target: T1, NK1 receptor; parameters: host or cells: U-251 MG cells; settings: room temperature; cited from earlier work
NK1 receptor [6] = biological target: T1, NK1 receptor; assay: Dual-point competition association assay (kinetic rate index); type: binding; settings: 4 °C; Bt1 (30 min)/Bt2 (120 min); vs radioligand [3H][Sar9,Met(O2)11]SP
Method: Dual-point competition association assays were performed as prescribed previously, following the radioligand binding protocol of Nederpelt et al.[27].
Data from dual-point competition association assays were analyzed by dividing the specific binding at t1 (Bt1) with the specific binding at t2 (Bt2).1 KRI=Bt1/Bt2 Data from morphology and cAMP experiments were analyzed as described previously. […] Results were normalized to the maximal response induced by agonist without antagonist.

NK1 receptor [7] = biological target: T1, NK1 receptor; assay: Radioligand binding affinity at the NK1 receptor ([3H][Sar9,Met(O2)11]SP, CHOhNK1 membranes)
[8] = NKA after 0.07 nM antagonist, first 8 min
[9] = NKA after 0.21 nM antagonist, first 8 min
[10] = NKA after 0.7 nM antagonist, first 8 min
[11] = SP after 0.07 nM antagonist, first 8 min
[12] = SP after 0.21 nM antagonist, first 8 min
[13] = SP after 0.7 nM antagonist, first 8 min
[14] = NKA after 0.07 nM antagonist, normalized to NKA only
[15] = NKA after 0.21 nM antagonist, normalized to NKA only
[16] = NKA after 0.7 nM antagonist, normalized to NKA only
[17] = SP after 0.07 nM antagonist, normalized to SP only
[18] = SP after 0.21 nM antagonist, normalized to SP only
[19] = SP after 0.7 nM antagonist, normalized to SP only

Compound: O=c1[nH]nc(CN2CCO[C@H](OCc3cc(C(F)(F)F)cc(C(F)(F)F)c3)[C@@H]2c2ccccc2)[nH]1 [L-742,694]
- effect on Emax of SP after pre-incubation (NK1 receptor [1]): clear decrease

Compound: CSCC[C@H](NC(=O)[C@H](CC(C)C)NC(=O)CNC(=O)[C@@H](NC(=O)[C@H](Cc1ccccc1)NC(=O)[C@H](CO)NC(=O)[C@H](CC(=O)O)NC(=O)[C@@H](NC(=O)[C@H](CCCCN)NC(=O)[C@@H](N)Cc1c[nH]cn1)[C@@H](C)O)C(C)C)C(N)=O [NKA, neurokinin A]
- Emax morphology NKA (NK1 receptor [2]): 100 ± 0.44 %

Compound: Cc1ccccc1-c1cc(N2CCN(C)CC2)ncc1N(C)C(=O)C(C)(C)c1cc(C(F)(F)F)cc(C(F)(F)F)c1 [netupitant]
- type of antagonism (NK1 receptor [1]): insurmountable

- Onset of receptor activation, cAMP, NKA [3, 8]: 75 ± 13^NS RLU min^−1
- Onset of receptor activation, cAMP, NKA [3, 9]: 43 ± 7.7 RLU min^−1
- Onset of receptor activation, cAMP, NKA [3, 10]: 9.7 ± 1.6 RLU min^−1
- Onset of receptor activation, cAMP, SP [3, 11]: 94 ± 13 RLU min^−1
- Emax ([3]; SP after 0.07 nM antagonist, normalized to SP only, read-out: Emax cAMP SP): 62 ± 5.7%
- Onset of receptor activation, cAMP, SP [3, 12]: 63 ± 17 RLU min^−1
- Emax ([3]; SP after 0.21 nM antagonist, normalized to SP only, read-out: Emax cAMP SP): 55 ± 15%
- Onset of receptor activation, cAMP, SP [3, 13]: 36 ± 7 RLU min^−1
- Emax ([3]; SP after 0.7 nM antagonist, normalized to SP only, read-out: Emax cAMP SP): 19 ± 5.5%
- type of antagonism (insurmountability) [3]: fully insurmountable
- decrease of onset of SP-induced cAMP production ([3]; antagonist pre-incubation, first 8 min): up to 6 fold
- decrease of onset of NKA-induced cAMP production ([3]; first 8 min): 15 fold
- decrease of potency of NKA ([3]; cAMP assay): 10 fold
- Emax ([3]; cAMP assay, highest antagonist concentration, read-out: decrease of Emax of SP in comparison to control): > 80%
- Emax ([3]; read-out: Emax cAMP NKA, NKA after 0.07 nM antagonist, normalized to NKA only): 71 ± 13%
- Emax ([3]; read-out: Emax cAMP NKA, NKA after 0.21 nM antagonist, normalized to NKA only): 43 ± 19%
- Emax ([3]; read-out: Emax cAMP NKA, NKA after 0.7 nM antagonist, normalized to NKA only): 7.8 ± 4.2%
- Onset of receptor activation, morphology, NKA (NK1 receptor [4]; NKA after 0.07 nM antagonist): 0.05 ± 0.011^NS NCI min^−1
- Onset of receptor activation, morphology, NKA (NK1 receptor [4]; NKA after 0.21 nM antagonist): 0.03 ± 0.007^NS NCI min^−1
- Onset of receptor activation, morphology, NKA (NK1 receptor [4]; NKA after 0.7 nM antagonist): 0.006 ± 0.003 NCI min^−1
- Onset of receptor activation, morphology, SP (NK1 receptor [4]; SP after 0.07 nM antagonist): 0.05 ± 0.002^NS NCI min^−1
- Onset of receptor activation, morphology, SP (NK1 receptor [4]; SP after 0.21 nM antagonist): 0.04 ± 0.006^NS NCI min^−1
- Onset of receptor activation, morphology, SP (NK1 receptor [4]; SP after 0.7 nM antagonist): 0.009 ± 0.003 NCI min^−1
- Emax (NK1 receptor [4]; U-251, SP after 0.07 nM antagonist, normalized to SP only, read-out: Emax morphology SP): 96 ± 7.6%
- Emax (NK1 receptor [4]; U-251, SP after 0.21 nM antagonist, normalized to SP only, read-out: Emax morphology SP): 79 ± 5%
- Emax (NK1 receptor [4]; U-251, SP after 0.7 nM antagonist, normalized to SP only, read-out: Emax morphology SP): 53 ± 8.5%
- Emax (NK1 receptor [4]; U-251, read-out: Emax morphology NKA, NKA after 0.07 nM antagonist, normalized to NKA only): 97 ± 2.3%
- Emax (NK1 receptor [4]; U-251, read-out: Emax morphology NKA, NKA after 0.21 nM antagonist, normalized to NKA only): 79 ± 10%
- Emax (NK1 receptor [4]; U-251, read-out: Emax morphology NKA, NKA after 0.7 nM antagonist, normalized to NKA only): 30 ± 6.2%
- decrease of onset of NKA-induced morphological changes (NK1 receptor [4]): 8 fold
- decrease of onset of SP-induced impedance changes (NK1 receptor [4]): 5 fold
- increase of EC50 value of NKA (NK1 receptor [4]): 7 fold
Compound: C[C@@H](O[C@H]1OCCN(Cc2n[nH]c(=O)[nH]2)[C@H]1c1ccc(F)cc1)c1cc(C(F)(F)F)cc(C(F)(F)F)c1 [Aprepitant, aprepitant]
- receptor dissociation rate (NK1 receptor [5]): 0.0054 min⁻¹

- Onset of receptor activation, cAMP, NKA [3, 8]: 98 ± 29^NS RLU min^−1
- Emax cAMP NKA [3, 14]: 84 ± 18^NS %
- Onset of receptor activation, cAMP, NKA [3, 9]: 98 ± 33^NS RLU min^−1
- Emax cAMP NKA [3, 15]: 67 ± 10 %
- Onset of receptor activation, cAMP, NKA [3, 10]: 71 ± 22^NS RLU min^−1
- Emax cAMP NKA [3, 16]: 61 ± 15 %
- Onset of receptor activation, cAMP, SP [3, 11]: 125 ± 31^NS RLU min^−1
- Emax cAMP SP [3, 17]: 78 ± 4.5 %
- Onset of receptor activation, cAMP, SP [3, 12]: 120 ± 27^NS RLU min^−1
- Emax cAMP SP [3, 18]: 75 ± 7.7 %
- Onset of receptor activation, cAMP, SP [3, 13]: 158 ± 26^NS RLU min^−1
- Emax cAMP SP [3, 19]: 61 ± 10 %
- EC50 ([3]; SP after 30 min pre-incubation with 0.07 nM antagonist, read-out: EC50 cAMP SP): 1.9 ± 0.5 nM
- EC50 ([3]; SP after 30 min pre-incubation with 0.21 nM antagonist, read-out: EC50 cAMP SP): 2.7 ± 0.8 nM
- EC50 ([3]; SP after 30 min pre-incubation with 0.7 nM antagonist, read-out: EC50 cAMP SP): 2.3 ± 0.7 nM
- type of antagonism (insurmountability) [3]: partially insurmountable
- IC50 ([3]; antagonist pre-incubation, then EC80 concentration of NKA, read-out: IC50 (cAMP)): 0.26 ± 0.08 nM
- IC50 ([3]; antagonist pre-incubation, then EC80 concentration of SP, read-out: IC50 (cAMP assay)): 0.15 ± 0.02 nM
- decrease of onset of NKA-induced cAMP production ([3]; first 8 min): did not significantly decrease
- decrease of potency of NKA ([3]; cAMP assay): did not affect
- decrease of Emax of SP in comparison to control ([3]; cAMP assay, highest antagonist concentration): 39%
- EC50 ([3]; read-out: EC50 cAMP NKA, NKA after 30 min pre-incubation with 0.07 nM antagonist): 399 ± 19 nM
- EC50 ([3]; read-out: EC50 cAMP NKA, NKA after 30 min pre-incubation with 0.21 nM antagonist): 304 ± 89 nM
- EC50 ([3]; read-out: EC50 cAMP NKA, NKA after 30 min pre-incubation with 0.7 nM antagonist): 1080 ± 356 nM
- Onset of receptor activation, morphology, NKA (NK1 receptor [4]; NKA after 0.07 nM antagonist): 0.06 ± 0.005^NS NCI min^−1
- Emax morphology NKA (NK1 receptor [4]; [14]): 109 ± 7.6^NS %
- Onset of receptor activation, morphology, NKA (NK1 receptor [4]; NKA after 0.21 nM antagonist): 0.05 ± 0.007^NS NCI min^−1
- Emax morphology NKA (NK1 receptor [4]; [15]): 108 ± 6.7^NS %
- Onset of receptor activation, morphology, NKA (NK1 receptor [4]; NKA after 0.7 nM antagonist): 0.04 ± 0.014^NS NCI min^−1
- Emax morphology NKA (NK1 receptor [4]; [16]): 81 ± 8.9 %
- Onset of receptor activation, morphology, SP (NK1 receptor [4]; SP after 0.07 nM antagonist): 0.06 ± 0.006^NS NCI min^−1
- Emax morphology SP (NK1 receptor [4]; [17]): 97 ± 5.6^NS %
- Onset of receptor activation, morphology, SP (NK1 receptor [4]; SP after 0.21 nM antagonist): 0.05 ± 0.006^NS NCI min^−1
- Emax morphology SP (NK1 receptor [4]; [18]): 104 ± 4.2^NS %
- Onset of receptor activation, morphology, SP (NK1 receptor [4]; SP after 0.7 nM antagonist): 0.03 ± 0.005 NCI min^−1
- Emax morphology SP (NK1 receptor [4]; [19]): 82 ± 6.9 %
- EC50 (NK1 receptor [4]; SP after 30 min pre-incubation with 0.07 nM antagonist, read-out: EC50 morphology SP): 0.053 ± 0.02 nM
- EC50 (NK1 receptor [4]; SP after 30 min pre-incubation with 0.21 nM antagonist, read-out: EC50 morphology SP): 0.06 ± 0.015 nM
- EC50 (NK1 receptor [4]; SP after 30 min pre-incubation with 0.7 nM antagonist, read-out: EC50 morphology SP): 3 ± 1.3 nM
- IC50 (NK1 receptor [4]; then EC80 concentration of NKA, read-out: IC50 (morphology)): 0.12 ± 0.006 nM
- IC50 (NK1 receptor [4]; then EC80 concentration of SP, read-out: IC50 (morphology assay)): 0.22 ± 0.1 nM
- decrease of onset of NKA-induced morphological changes (NK1 receptor [4]): did not significantly decrease
- decrease of onset of SP-induced impedance changes (NK1 receptor [4]): less significant
- EC50 (NK1 receptor [4]; read-out: EC50 morphology NKA, NKA after 30 min pre-incubation with 0.07 nM antagonist): 3 ± 0.52 nM
- EC50 (NK1 receptor [4]; read-out: EC50 morphology NKA, NKA after 30 min pre-incubation with 0.21 nM antagonist): 3.3 ± 0.45 nM
- EC50 (NK1 receptor [4]; read-out: EC50 morphology NKA, NKA after 30 min pre-incubation with 0.7 nM antagonist): 8.5 ± 0.46 nM
- increase of EC50 value of NKA (NK1 receptor [4]): 2 fold
- KRI (kinetic rate index) (NK1 receptor [6]): 1.0 ± 0.13
- pKi (NK1 receptor [7]): 9.3 ± 0.04
Compound: C[C@@H](O[C@H]1OCCN(Cc2n[nH]c(=O)[nH]2)[C@H]1c1ccccc1)c1cc(C(F)(F)F)cc(C(F)(F)F)c1 [DFA, desfluoro aprepitant]
